{"source": "ChEMBL document CHEMBL1201862", "about": "“PubChem BioAssay data set” (2004)", "key": {"INS1": {"test_system": "INS1", "experiment": "beta cell apoptosis inhibitors, cytokine rescue, dose response, luminescence, retest (AID 449756);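 also: cell death triggered by IL-1 beta plus TNF-alpha plus IFN-gamma mixture; protective hits raise ATP signal compared with cytokine alone wells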", "type": "functional, cell-based", "conditions": "Rattus norvegicus"}, "[1]": {"experiment": "cytotoxicity in HEK-293T cells, dose response, cytotoxicity control for BCR NF-kB inhibitor project, luminescence, B-cell screen hits (AID 489021);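 also: cells exposed to compound for about 14 hours before viability readout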", "type": "functional, cell-based"}, "[2]": {"molecular_target": "COUP transcription factor 2 (Homo sapiens, UniProt P24468)", "experiment": "Luminescence-based cell-based high throughput dose response assay to identify inhibitors of COUP-TFII (NR2F2).", "type": "functional"}, "[3]": {"experiment": "cytotoxicity toward NIH3T3 fibroblasts, dose response, counter-screen, cell-based, ATP luminescence, mouse fibroblasts (AID 2010);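 also: cells exposed to compound for about 90 hours before reading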", "type": "functional"}, "[4]": {"experiment": "NIH-3T3 fibroblast cytotoxicity, dose response, cytotoxicity control, cell-based, fluorescence, Alamar Blue, secondary assay (AID 2327);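 also: NIH-3T3 mouse fibroblasts cultured with fluconazole at 8 µg/mL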", "type": "functional"}, "[5]": {"experiment": "C. albicans growth with fluconazole, confirmation, fluorescence, retest (AID 2467)", "type": "functional, cell-based"}, "[6]": {"experiment": "inhibitors of intracellular T. cruzi replication, confirmation, NIH3T3 host cells, beta-gal luminescence (AID 2044);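 also: luminescent beta-galactosidase reporter signal from transgenic T. cruzi replicating inside host cells; inhibitors lower the luminescence signal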", "type": "functional, cell-based"}, "Cytochrome P450 3A4": {"molecular_target": "Cytochrome P450 3A4 (Homo sapiens, UniProt P08684)"}, "Nonstructural protein 1": {"molecular_target": "Nonstructural protein 1 (Influenza A virus, UniProt Q194T2)", "type": "functional, Influenza A virus (A/California/07/2009(H1N1))"}, "fMet-Leu-Phe receptor": {"molecular_target": "fMet-Leu-Phe receptor (Homo sapiens, UniProt P21462)", "experiment": "FPR ligands, dose response (AID 519)", "type": "functional"}, "[7]": {"experiment": "HepG2 cell cytotoxicity, dose response, cytotoxicity control, luminescence plate reader, powder samples, set 2 (AID 651860)", "type": "functional, cell-based"}, "[8]": {"experiment": "Late stage assay provider results from the probe development effort to identify selective inhibitors of heat shock protein 90 (HSP90): Absorbance-based cell proliferation assay in MCF7 cells.", "type": "functional"}, "[9]": {"experiment": "Late stage assay provider results from the probe development effort to identify selective inhibitors of heat shock protein 90 (HSP90): Absorbance-based cell proliferation assay in SKBR3 cells.", "type": "functional", "conditions": "SK-BR-3"}, "[10]": {"molecular_target": "Potassium channel subfamily K member 3 (Homo sapiens, UniProt O14649)", "experiment": "TASK1 (KCNK3) potassium channel inhibitors, SAR follow-up, CHO cells, FluxOR thallium flux (AID 652212)", "type": "functional"}, "cells [11]": {"experiment": "cells", "type": "functional, cell-based"}, "[12]": {"molecular_target": "Nuclear receptor subfamily 0 group B member 1 (Homo sapiens, UniProt P51843)", "type": "functional, cell-based"}, "[13]": {"experiment": "NIH:OVCAR-3 ovarian cancer cell cytotoxicity, dose response, PAX8 inhibitor project, plate reader, dry powder samples (AID 743044)", "type": "functional, cell-based"}, "[14]": {"experiment": "P. falciparum Dd2 growth inhibitors, dose response, SYBR Green, cherry-picked samples (AID 1159567)", "type": "functional, cell-based"}, "Paired box protein Pax-8": {"molecular_target": "Paired box protein Pax-8 (Homo sapiens, UniProt Q06710)", "experiment": "inhibitors of PAX8-driven TPO luciferase reporter, dose response, RMG-I cells, cherry-pick (AID 687027);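 also: luciferase reporter driven by Pax8 target thyroperoxidase promoter measured by SteadyGlo luminescence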", "type": "functional, cell-based"}, "[15]": {"experiment": "cytotoxicity in OVCAR8 ovarian cancer cells, dose response, PAX8 project, cell-based, plate reader, dry powder samples (AID 743197)", "type": "functional", "conditions": "OVCAR-8"}, "[16]": {"experiment": "IGROV1 ovarian cancer cell cytotoxicity, dose response, PAX8 inhibitor project, plate reader, dry powder samples (AID 743043)", "type": "functional, cell-based", "conditions": "IGROV-1"}, "[17]": {"experiment": "inhibitors of CMV-promoter luciferase reporter, dose response, counter-screen for Pax8 inhibitor project, cell-based, HEK293, luminescence, dry powder (AID 743020)", "type": "functional"}, "[18]": {"experiment": "A2780 ovarian cancer cell cytotoxicity, dose response, cytotoxicity control, plate reader, dry powder samples (AID 743046)", "type": "functional, cell-based"}, "Major prion protein": {"molecular_target": "Major prion protein (Homo sapiens, UniProt P04156)", "type": "functional, cell-based"}, "[19]": {"molecular_target": "26S proteasome non-ATPase regulatory subunit 14 (Homo sapiens, UniProt O00487)", "experiment": "inhibition of proteasome subunit RPN11 – biochemical, fluorescence polarization, uHTS hits, confirmation (AID 602368)", "type": "functional"}, "[20]": {"molecular_target": "T1, RNA-binding protein pos-1 (Caenorhabditis elegans, UniProt G5EF15)", "T1 sequence (G5EF15 whole entry)": "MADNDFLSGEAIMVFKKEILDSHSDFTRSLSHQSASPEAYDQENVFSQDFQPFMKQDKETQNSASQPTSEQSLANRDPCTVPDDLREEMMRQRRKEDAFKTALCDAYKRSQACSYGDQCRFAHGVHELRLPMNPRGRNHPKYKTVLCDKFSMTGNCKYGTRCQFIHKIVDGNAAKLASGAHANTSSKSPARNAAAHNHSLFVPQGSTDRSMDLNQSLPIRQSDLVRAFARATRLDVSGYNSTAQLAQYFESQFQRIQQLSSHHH", "experiment": "inhibitors of POS-1/mex-3 RNA binding, dose response, biochemical, fluorescence polarization (AID 1964);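 also: purified POS-1 fused to maltose binding protein made in E. coli; potency of compounds blocking POS-1 binding to fluorescent RNA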"}, "Prothrombin": {"molecular_target": "Prothrombin (Bos taurus, UniProt P00735)", "experiment": "thrombin inhibition, dose response, biochemical, fluorescence polarization, uHTS hits (AID 602369)", "type": "functional"}, "Albumin": {"molecular_target": "Albumin (Bos taurus, UniProt P02769)", "experiment": "Counterscreen for inhibitors of T-cell receptor (TCR)-CD3 interaction: Fluorescence-based biochemical high throughput dose response assay to identify inhibitors of T-cell receptor (TCR)-CD3 interaction using a TAMRA-labeled BSA probe.", "type": "functional"}, "[21]": {"molecular_target": "72 kDa type IV collagenase (Homo sapiens, UniProt P08253)", "experiment": "Dose Response validation of uHTS RPN11 inhibitor hits using a MMP-2 Fluorescence assay.", "type": "functional"}, "cells [22]": {"experiment": "cells"}}, "note": "Activity calls are given as the source filed them."}
{"smiles": "CCOc1ccc(-[n+]2c(-c3ccccc3)cn3c2CCCCC3)cc1", "values": [{"measurement": "AC50", "setting": "INS1", "value": "0.822 µM (active)"}, {"measurement": "IC50", "setting": "[1]", "value": "> 80 µM (inactive)"}, {"measurement": "IC50", "setting": "[2]", "value": "8.69 µM (active)"}, {"measurement": "EC50", "setting": "[3]", "value": "7 µM (active)"}, {"measurement": "EC50", "setting": "[4]", "value": "> 150 µM (inactive)"}, {"measurement": "EC50", "setting": "[5]", "value": "16.3 µM (active)"}, {"measurement": "EC50", "setting": "[6]", "value": "0.534 µM (active)"}]}
{"smiles": "Nc1ccc(Nc2ccccc2)cc1", "values": [{"measurement": "AC50", "setting": "INS1", "value": "7.64 µM (active)"}, {"measurement": "AC50", "setting": "Cytochrome P450 3A4", "value": "20 µM (inconclusive)"}, {"measurement": "IC50", "setting": "Nonstructural protein 1", "value": "45.3 µM (active)"}, {"measurement": "Ki", "setting": "fMet-Leu-Phe receptor", "value": "> 66.7 µM (inactive)"}]}
{"smiles": "O=C(O)C1CCCCC1C(=O)N1CCc2ccccc2C1CN1C(=O)Cc2ccccc2C1=O", "note": "(stereo unspecified)", "values": [{"measurement": "AC50", "setting": "[7]", "value": "> 52 µM (inactive)"}]}
{"smiles": "CCCCOc1cccc(NC(=O)c2coc(=O)c(Br)c2)c1", "values": [{"measurement": "IC50", "setting": "[8]", "value": "22.8 µM (inactive)"}, {"measurement": "IC50", "setting": "[9]", "value": "32.9 µM (inactive)"}]}
{"smiles": "COc1ccc(C(=O)Nc2cccc(NC(=O)c3ccccc3)c2)cc1", "values": [{"measurement": "IC50", "setting": "[10]", "value": "4.46 µM (active)"}]}
{"smiles": "COc1ccccc1OCc1cc(C(=O)N(C)CCC2CCCCO2)no1", "note": "(stereo unspecified)", "values": [{"measurement": "IC50", "setting": "cells [11]", "value": "> 67.5 µM (inactive)"}, {"measurement": "IC50", "setting": "[12]", "value": "> 67.5 µM (inactive)"}]}
{"smiles": "CN1c2ccc(-c3cccc(C#N)c3)cc2[C@H]2[C@H](CCN2S(=O)(=O)c2ccccc2F)[C@H]1CO", "values": [{"measurement": "AC50", "setting": "[13]", "value": "16.6 µM (active)"}, {"measurement": "AC50", "setting": "[14]", "value": "3.57 µM (active)"}, {"measurement": "AC50", "setting": "Paired box protein Pax-8", "value": "4.87 µM (active)"}, {"measurement": "AC50", "setting": "[15]", "value": "23.4 µM (active)"}, {"measurement": "AC50", "setting": "[16]", "value": "33.3 µM (active)"}, {"measurement": "AC50", "setting": "[17]", "value": "28.2 µM (active)"}, {"measurement": "AC50", "setting": "[18]", "value": "38.1 µM (active)"}]}
{"smiles": "CSc1nc(-c2cccs2)c(C#N)c(=O)[nH]1", "values": [{"measurement": "IC50", "setting": "Major prion protein", "value": "3.22 µM (active)"}]}
{"smiles": "O=C1NC(=O)N(CCc2ccccc2)C(=O)/C1=C/NNC(=O)c1ccccc1O", "values": [{"measurement": "IC50", "setting": "[19]", "value": "63.5 µM (active)"}, {"measurement": "EC50", "setting": "[20]", "value": "69.9 µM (active)"}, {"measurement": "IC50", "setting": "Prothrombin", "value": "47.2 µM (active)"}, {"measurement": "IC50", "setting": "Albumin", "value": "> 94 µM (inactive)"}, {"measurement": "IC50", "setting": "[21]", "value": "> 100 µM (inactive)"}]}
{"smiles": "CSc1nc(O)c(C#N)c(-c2cccs2)n1", "values": [{"measurement": "IC50", "setting": "cells [22]", "value": "> 138 µM (inactive)"}]}
